Results from patent US8367873B2, “Phenyl-substituted bicyclooctane-1,3-dione derivatives” (Bayer Cropscience AG, priority 2008, dated 2013).

Experiments:
Assay type in all cases: in vivo
[1] = test system: Lolium multiflorum; experiment: Herbicidal pre-emergence action; details: pre-emergence method, 80 g/ha, greenhouse, visual assessment vs untreated controls
Text: (§1) Seeds of monocotylidonous and dicotylidonous weed and crop plants are placed in sandy loam in wood fibre pots and covered with soil. The test compounds, formulated in the form of wettable powders (WP), are then, as an aqueous suspension with a water application rate of 600 l/ha (converted), with 0.2% of wetting agent added, applied to the surface of the covering soil in different amounts.
(§2) After the treatment, the pots are placed in a greenhouse and kept under good growth conditions for the test plants. The visual assessment of the emergence damage on the test plants is carried out after a trial period of three weeks by comparison with the untreated controls (herbicidal effect in percent: 100% effect=the plants have died, 0% effect=like control plants).

[2] = test system: Echinocloa crus-galli; experiment: Herbicidal pre-emergence action; details: pre-emergence method, 80 g/ha, greenhouse, visual assessment vs untreated controls
Text: as §1, §2

[3] = test system: Alopecurus myosuroides; experiment: Herbicidal pre-emergence action; details: pre-emergence method, 80 g/ha, greenhouse, visual assessment vs untreated controls
Text: as §1, §2

[4] = test system: Setaria viridis; experiment: Herbicidal pre-emergence action; details: pre-emergence method, 80 g/ha, greenhouse, visual assessment vs untreated controls
Text: as §1, §2

[5] = test system: Lolium multiflorum; experiment: Herbicidal post-emergence action; details: post-emergence method; for herbicidal effect against LOLMU (Lolium multiflorum): 80 g/ha
Summary of the method: (§3)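 One-leaf-stage greenhouse plants sprayed with WP at graded amounts (600 l/ha, 0.2% wetting agent); ~3 wk later, visual % effect rated vs untreated controls, 100% = dead, 0% = like control.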

[6] = test system: Echinocloa crus-galli; experiment: Herbicidal post-emergence action; details: post-emergence method; for herbicidal effect against ECHCG (Echinochloa crus-galli): 80 g/ha
Summary of the method: as §3

[7] = test system: Alopecurus myosuroides; experiment: Herbicidal post-emergence action; details: post-emergence method; for herbicidal effect against ALOMY (Alopecurus myosuroides): 80 g/ha
Summary of the method: as §3

[8] = test system: Setaria viridis; experiment: Herbicidal post-emergence action; details: post-emergence method; for herbicidal effect against SETVI (Setaria viridis): 80 g/ha
Summary of the method: as §3

[9] = test system: monocotylidonous and dicotylidonous weed and crop plants; experiment: Herbicidal post-emergence action (other test plants); details: post-emergence method; for herbicidal effect against AVEFA (Avena fatua): 80 g/ha
Summary of the method: as §3

[10] = test system: monocotylidonous and dicotylidonous weed and crop plants; experiment: Herbicidal pre-emergence action (other test plants); details: pre-emergence method, 80 g/ha, greenhouse, visual assessment vs untreated controls
Text: as §1, §2

| SMILES | herbicidal effect LOLMU [1] [%] | herbicidal effect ECHCG [2] [%] | herbicidal effect ALOMY [3] [%] | herbicidal effect SETVI [4] [%] | herbicidal effect against LOLMU (Lolium multiflorum) [5] [%] | herbicidal effect against ECHCG (Echinochloa crus-galli) [6] [%] | herbicidal effect against ALOMY (Alopecurus myosuroides) [7] [%] | herbicidal effect against SETVI (Setaria viridis) [8] [%] | herbicidal effect against AVEFA (Avena fatua) [9] [%] | herbicidal effect AVEFA [10] [%] | pest or weed control at 80 g/ha ([5]; Lolium multiflorum, 504 h, read-out: herbicidal effect against LOLMU (Lolium multiflorum)) [%] | pest or weed control at 80 g/ha ([6]; Echinochloa crus-galli, 504 h, read-out: herbicidal effect against ECHCG (Echinochloa crus-galli)) [%] | pest or weed control at 80 g/ha ([7]; Alopecurus myosuroides, 504 h, read-out: herbicidal effect against ALOMY (Alopecurus myosuroides)) [%] | pest or weed control at 80 g/ha ([8]; Setaria viridis, 504 h, read-out: herbicidal effect against SETVI (Setaria viridis)) [%] | pest or weed control at 80 g/ha ([9]; 504 h, Avena fatua, read-out: herbicidal effect against AVEFA (Avena fatua)) [%] |
| --- | --- | --- | --- | --- | --- | --- | --- | --- | --- | --- | --- | --- | --- | --- | --- |
| Cc1cc(C)c(C2=C(OC(=O)C(C)C)C3CC4(COC(C)(C)O4)CC3C2=O)c(C)c1 (mixture of isomers) [I-b-46] | 100 | 0 | 90 | 0 | 100 | 90 | 90 | 80 | 40 | 60 |  |  |  |  |  |
| C=C1CC2C(=O)C(c3c(C)cc(C)cc3CC)=C(O)C2C1 (stereo not shown) [I-a-55] | 50 | 100 | 60 | 90 | 40 | 100 | 20 | 100 | 0 | 60 |  |  |  |  |  |
| C=C1CC2C(=O)C(c3c(C)cc(C)cc3CC)=C(OC(=O)OCC)C2C1 (racemic) [I-c-76] | 90 | 100 | 80 | 90 | 90 | 100 | 10 | 100 | 0 | 20 |  |  |  |  |  |
| CCc1cc(C)cc(CC)c1C1=C(O)[C@H]2CC(=NOCC3CC3)C[C@H]2C1=O (relative stereo) [I-a-31] | 100 | 100 | 80 | 90 | 100 | 100 | 100 | 100 | 80 | 40 |  |  |  |  |  |
| Cc1cc(C)c(C2=C([O-])C3CC4(CC3C2=O)OCC=CCO4)c(C)c1.[Na+] (stereo not shown) [I-f-8] | 100 | 0 | 30 | 70 | 100 | 100 | 100 | 100 | 90 | 40 |  |  |  |  |  |
| COc1cc(C)cc(C)c1C1=C([O-])C2CC3(CC2C1=O)OCCO3.[Na+] (stereo not shown) [I-f-6] | 90 | 70 | 60 | 70 | 100 | 100 | 100 | 100 | 80 | 90 |  |  |  |  |  |
| CCc1cc(C)cc(C)c1C1=C(O)C2CC3(CC2C1=O)OCCO3 (stereo not shown) [I-a-57] | 100 | 100 | 80 | 90 | 100 | 100 | 100 | 100 | 100 | 60 |  |  |  |  |  |
| CCc1cc(C)cc(CC)c1C1=C(OC(=O)COC)C2CC3(COC(C)(C)O3)CC2C1=O (stereo not shown) [I-b-4] | 100 | 70 | 90 | 60 | 100 | 100 | 100 | 60 | 90 | 50 |  |  |  |  |  |
| CCc1cc(C)cc(C)c1C1=C(OC(=O)OC(C)C)C2CC3(CC2C1=O)OCC=CCO3 (racemic) [I-c-74] | 100 | 100 | 70 | 100 | 100 | 100 | 60 | 100 | 70 | 60 |  |  |  |  |  |
| CCc1cc(C)cc(CC)c1C1=C(O)C2CC3(CC2C1=O)OC(C)CC(C)O3 (mixture of isomers) [I-a-12] | 100 | 100 | 100 | 90 | 100 | 100 | 100 | 100 | 100 | 80 |  |  |  |  |  |
| CCOC1COC2(CC3C(=O)C(c4c(CC)cc(C)cc4CC)=C(OC(=O)C(C)C)C3C2)OC1 (stereo not shown) [I-b-16] | 100 | 100 | 100 | 100 | 100 | 100 | 100 | 100 | 90 | 80 |  |  |  |  |  |
| CCc1cc(C)cc(CC)c1C1=C(O)C2CC3(COC(C)O3)CC2C1=O (mixture of isomers) [I-a-7] | 90 | 70 | 100 | 70 | 100 | 100 | 90 | 90 | 60 | 80 |  |  |  |  |  |
| CCc1cc(C)cc(C)c1C1=C(OC(=O)C(C)(C)C)C2CC3(CC2C1=O)OCCCO3 (stereo not shown) [I-b-74] | 100 | 100 | 60 | 70 | 100 | 100 | 80 | 80 | 80 | 60 |  |  |  |  |  |
| CCc1cc(C)cc(CC)c1C1=C([O-])C2CC3(CC2C1=O)OCCCCO3.[Na+] (stereo not shown) [I-f-17] | 100 | 90 | 80 | 90 | 100 | 100 | 100 | 100 | 100 | 60 |  |  |  |  |  |
| C=C1C[C@@H]2C(O)=C(c3c(CC)cc(C)cc3CC)C(=O)[C@@H]2C1 (stereo in doubt) [I-a-5, 2-(2,6-diethyl-4-methylphenyl)-3-hydroxy-5-methylidene-4,5,6,6a-tetrahydropentalen-1(3 aH)-one] | 90 | 80 | 60 | 70 |  |  |  |  |  | 60 | 90 | 100 | 60 | 100 | 50 |
| Cc1cc(C)c(C2=C(O)[C@H]3CC4(C[C@H]3C2=O)OCC(C)CO4)c(C)c1 (relative stereo) [I-a-38] | 100 | 40 | 100 | 90 | 100 | 80 | 100 | 90 | 90 | 40 |  |  |  |  |  |
